Source: US8080535B2, “Hyaluronic acid nutritional supplements and methods of using the same” (Leneau Holdings, LLC, priority 2001, dated 2011)

Legend:
[1] = test system: human patients suffering pain and discomfort associated with fibromyalgia; test: Oral ingestion of hyaluronic acid by patients afflicted with fibromyalgia, subjective pain feeling; type: in vivo
Procedure: Another study involving thirty-five human patients suffering pain and discomfort associated with fibromyalgia was undertaken to evaluate the effectiveness of oral ingestion of hyaluronic acid. Each patient received about 1 to about 6 mg of hyaluronic acid by oral ingestion administration of concentrate diluted into beverages or food. Over a treatment period of about 1 to about 14 months, the patients' subjective pain feeling was reported. Twenty-one patients reported no pain after hyaluronic acid therapy. Six patients (17.1%) reported some (60%) degree of pain relief. Eight patients reported no change in the amount of pain they felt.

[2] = test system: human patients suffering pain and discomfort associated with rheumatoid arthritis; test: Oral ingestion of hyaluronic acid by patients afflicted with rheumatoid arthritis, subjective pain score 0 to 10; type: in vivo; settings: scale 0 to 10; about 1 mg oral solution for 30 days; average prior to the study 8.47; 15 of seventeen patients responded
Procedure: Another study involving seventeen human patients suffering pain and discomfort associated with rheumatoid arthritis was undertaken. Each patient received about 1 mg of an oral hyaluronic acid solution for a period of 30 days. Each patient was asked to evaluate his or her subjective pain feeling and report the score on a scale of 0 to 10, wherein 0 means no pain and/or stiffness whatsoever and 10 means worst imaginable pain and/or stiffness. Prior to the start of the study, the patients reported as follows: […]

[3] = test system: patients suffering from osteoarthritis; test: Oral ingestion of hyaluronic acid by patients suffering from osteoarthritis, subjective pain feeling; type: in vivo, human; settings: of sixty-seven osteoarthritis patients; 1-4 mg oral 1 to 4 times a day
Procedure: A study involving sixty-seven patients suffering from osteoarthritis was undertaken to determine the effectiveness of oral ingestion of hyaluronic acid. Each patient received 1-4 mg of hyaluronic acid by oral ingestion administration 1 to 4 times a day over periods ranging from about […], during which period the patients' subjective pain feeling was reported. […] Fourteen patients reported no change in the amount of pain they felt.

[4] = of thirty-five fibromyalgia patients, about 1 to about 6 mg oral, about 1 to about 14 months

hyaluronic acid
patients reported no change in the amount of pain [1, 4]: Eight | patients reported no pain after hyaluronic acid therapy [1, 4]: Twenty-one | patients reported some degree of pain relief [1, 4]: Six | patients reported some degree of pain relief (percent of patients) [1, 4]: 17.1% | some (60%) degree of pain relief ([1]; printed in brackets in the sentence on the six patients with some pain relief): 60% | average subjective pain and/or stiffness score at completion of the 30-day study [2]: 3.47 | patients reported no change in the amount of pain [3]: Fourteen | patients reported no pain and increased range of motion [3]: Twenty-nine | patients reported no pain and increased range of motion (percent of patients) [3]: 43.3% | patients reported some degree of pain relief and some increased range of motion [3]: Twenty-four | patients reported some degree of pain relief and some increased range of motion (percent of patients) [3]: 35.8%
